Measurements as given in patent US7070892B2, “Imaging members” (Xerox Corporation, priority 2004, dated 2006).

Test: solubility of the electron transport component (CFM derivative) in organic solvents
Type: physicochemical

| Structure (SMILES) | solubility of the electron transport component (solvent is butylacetate) | solubility of the electron transport component (solvent is tetrahydrofuran) |
| --- | --- | --- |
| CCCCC(CC)COC(=O)c1cccc2c1-c1ccccc1C2=C(C#N)C#N (stereo not shown) [R8 is 2-ethylhexyl, 9-dicyanomethylenefluorene-4-(2-ethylhexyl)carboxylate] | 25 grams/liter | 205 grams/liter |
| CCCCOC(=O)c1cccc2c1-c1ccccc1C2=C(C#N)C#N [R8 is n-butyl, (4-n-butoxycarbonyl-9-fluorenylidene)malononitrile] | 8 grams/liter | 105 grams/liter |
